In ChEMBL document CHEMBL5154845, “Dual-acting antitumor agents targeting the A2A adenosine receptor and histone deacetylases: Design and synthesis of 4-(furan-2-yl)-1H-pyrazolo[3,4-d]pyrimidin-6-amine derivatives” (Eur J Med Chem, 2022):

Tests used:
Adenosine receptor A2a = Adenosine receptor A2a (Homo sapiens, UniProt P29274); test: Displacement of [3H][…] from human A2AAR incubated for 60 mins by scintillation counter analysis
Histone deacetylase 1 = Histone deacetylase 1 (Homo sapiens, UniProt Q13547); test: Inhibition of HDAC1 (unknown origin) using trypsin and LGK(Ac)-AMC as substrates incubated for 1 hr and measured by fluorescence assay
MC-38 = test: Antiproliferative activity against mouse MC38 cells after 72 hrs by CCK-8 assay; assay type: functional
CT26 = test: Antiproliferative activity against mouse CT26 cells after 72 hrs by CCK-8 assay; assay type: functional
[1] = Elimination rate constant in male ICR mouse at 20 mg/kg, po measured up to 24 hrs by LC-MS/MS analysis; assay type: ADME, organism-based; settings: in vivo
[2] = Half-life in male ICR mouse at 20 mg/kg, po measured up to 24 hrs by LC-MS/MS analysis; assay type: ADME, organism-based; settings: in vivo
[3] = Tmax in male ICR mouse at 20 mg/kg, po measured up to 24 hrs by LC-MS/MS analysis; assay type: ADME, organism-based; settings: in vivo
[4] = Cmax in male ICR mouse at 20 mg/kg, po measured up to 24 hrs by LC-MS/MS analysis; assay type: ADME, organism-based; parameters: time < 24 hrs, dose 20 mg/kg, route po; settings: in vivo
[5] = AUC (0 to t) in male ICR mouse at 20 mg/kg, po measured up to 24 hrs by LC-MS/MS analysis; assay type: ADME, organism-based; parameters: time < 24 hrs, dose 20 mg/kg, route po; settings: in vivo
[6] = Mean residence time in male ICR mouse at 20 mg/kg, po measured up to 24 hrs by LC-MS/MS analysis; assay type: ADME, organism-based; settings: in vivo
Adenosine receptor A1 = target: T1, Adenosine receptor A1 (Homo sapiens, UniProt P30542); test: Displacement of [3H]DPCPX from human A1AR incubated for 60 mins by scintillation counter analysis
T1 sequence (P30542 whole entry): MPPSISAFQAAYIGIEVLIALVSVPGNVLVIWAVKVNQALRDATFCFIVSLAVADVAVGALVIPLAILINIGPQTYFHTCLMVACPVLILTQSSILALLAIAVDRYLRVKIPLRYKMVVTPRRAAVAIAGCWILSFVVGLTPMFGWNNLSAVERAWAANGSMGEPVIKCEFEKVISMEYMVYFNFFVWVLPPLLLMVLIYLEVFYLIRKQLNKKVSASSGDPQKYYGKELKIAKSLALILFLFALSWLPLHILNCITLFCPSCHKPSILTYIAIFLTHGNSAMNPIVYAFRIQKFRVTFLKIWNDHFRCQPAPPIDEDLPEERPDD

Adenosine receptor A2b = target: T2, Adenosine receptor A2b (Homo sapiens, UniProt P29275); test: Displacement of [3H]DPCPX from human A2BAR incubated for 60 mins by scintillation counter analysis
T2 sequence (P29275 whole entry): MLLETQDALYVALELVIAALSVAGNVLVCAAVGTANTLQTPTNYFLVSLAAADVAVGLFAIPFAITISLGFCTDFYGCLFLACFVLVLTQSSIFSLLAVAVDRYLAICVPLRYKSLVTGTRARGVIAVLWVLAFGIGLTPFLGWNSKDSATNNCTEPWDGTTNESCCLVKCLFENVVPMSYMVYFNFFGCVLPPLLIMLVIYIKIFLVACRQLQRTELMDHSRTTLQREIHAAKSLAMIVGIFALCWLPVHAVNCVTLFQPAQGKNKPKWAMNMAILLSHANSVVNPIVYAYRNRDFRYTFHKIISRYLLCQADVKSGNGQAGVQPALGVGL

Adenosine receptor A3 = target: T3, Adenosine receptor A3 (Homo sapiens, UniProt P0DMS8); test: Displacement of [3H]HEMADO from human A3AR incubated for 60 mins by scintillation counter analysis
T3 sequence (P0DMS8 whole entry): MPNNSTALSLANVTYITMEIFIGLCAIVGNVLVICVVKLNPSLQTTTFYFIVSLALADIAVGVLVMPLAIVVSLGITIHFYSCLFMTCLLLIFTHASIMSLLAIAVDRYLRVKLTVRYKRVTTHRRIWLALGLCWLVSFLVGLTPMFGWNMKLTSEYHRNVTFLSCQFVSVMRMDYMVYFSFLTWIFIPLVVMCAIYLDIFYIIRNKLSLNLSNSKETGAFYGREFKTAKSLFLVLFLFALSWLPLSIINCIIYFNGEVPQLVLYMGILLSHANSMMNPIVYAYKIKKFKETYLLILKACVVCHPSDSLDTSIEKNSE

Chain of Histone deacetylase 1 (Q13547 whole entry): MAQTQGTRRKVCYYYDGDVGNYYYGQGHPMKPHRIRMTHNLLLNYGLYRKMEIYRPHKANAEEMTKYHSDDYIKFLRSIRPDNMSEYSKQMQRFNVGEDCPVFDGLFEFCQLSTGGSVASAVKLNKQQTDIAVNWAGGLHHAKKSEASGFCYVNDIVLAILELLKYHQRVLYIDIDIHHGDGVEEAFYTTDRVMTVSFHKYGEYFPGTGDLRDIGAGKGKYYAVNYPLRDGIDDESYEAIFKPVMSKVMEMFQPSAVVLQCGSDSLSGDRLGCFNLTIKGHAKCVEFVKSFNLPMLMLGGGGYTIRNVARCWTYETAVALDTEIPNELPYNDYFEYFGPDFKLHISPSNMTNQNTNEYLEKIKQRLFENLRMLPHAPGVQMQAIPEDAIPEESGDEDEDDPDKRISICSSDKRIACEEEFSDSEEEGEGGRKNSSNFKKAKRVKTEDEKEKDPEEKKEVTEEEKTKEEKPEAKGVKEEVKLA
Chain of Adenosine receptor A2a (P29274 whole entry): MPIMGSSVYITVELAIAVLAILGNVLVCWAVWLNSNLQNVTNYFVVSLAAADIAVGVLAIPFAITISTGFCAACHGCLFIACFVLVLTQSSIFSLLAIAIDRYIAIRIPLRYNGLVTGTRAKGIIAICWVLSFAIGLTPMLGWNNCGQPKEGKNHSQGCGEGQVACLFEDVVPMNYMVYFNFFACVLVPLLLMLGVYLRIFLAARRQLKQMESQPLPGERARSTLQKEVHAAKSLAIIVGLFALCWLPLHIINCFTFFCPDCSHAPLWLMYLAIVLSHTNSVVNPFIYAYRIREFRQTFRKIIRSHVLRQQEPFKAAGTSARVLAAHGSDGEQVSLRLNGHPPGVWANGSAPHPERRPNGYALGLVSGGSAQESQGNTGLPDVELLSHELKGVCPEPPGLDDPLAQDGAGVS

SMILES	Ki (Adenosine receptor A2a) [nM]	IC50 (Histone deacetylase 1) [nM]	GI50 (MC-38) [nM]	GI50 (CT26) [nM]	further results
Nc1nc(-c2ccco2)c2cnn(CCCCCCC(=O)NO)c2n1	301	2.4	350	33000	
Cc1ccc(-c2nc(N)nc3c2cnn3CCc2ccc(C(=O)Nc3ccccc3N)cc2)o1	125	126	7970	9130	
Cc1ccc(-c2nc(N)nc3c2cnn3CCCOc2ccc(C(=O)Nc3ccccc3N)cc2)o1	107	226			
Nc1ccccc1NC(=O)c1ccc(CNc2nccc(-c3cccnc3)n2)cc1 [MOCETINOSTAT]			1640	1770	
O=C(CCCCCCC(=O)Nc1ccccc1)NO [VORINOSTAT]			2740	2350	
Cc1ccc(-c2nc(N)nc3c2cnn3Cc2cccc(OCCCCCCC(=O)NO)c2)o1	52.8	42.5	11300	13200	
Nc1nc(-c2ccco2)c2cnn(Cc3cccc(OCCCCCC(=O)NO)n3)c2n1	68.3	192			
Nc1nc(-c2ccco2)c2cnn(Cc3cccc(/C=C/C(=O)NO)c3)c2n1	130	8.4	1910	2320	k el at 24 h [1]: 2.69e-05 s⁻¹; half-life [2]: 7.53 h; Tmax [3]: 0.25 h; Cmax [4]: 122 ng/mL; AUC(0-t) at 24 h [5]: 182 ng·h/mL; MRT [6]: 9.54 h
Nc1nc(-c2ccco2)c2cnn(CCc3ccc(C(=O)NO)cc3)c2n1	436	126			
Nc1nc(-c2ccco2)c2cnn(Cc3cccc(OCCCCC(=O)NO)c3)c2n1	7.3	151			
Nc1nc(-c2ccco2)c2cnn(Cc3cccc(OCCCCC(=O)NO)n3)c2n1	50.7	420			
Nc1nc(-c2ccco2)c2cnn(CCCCCC(=O)NO)c2n1	777	9.3			
Nc1nc(-c2ccco2)c2cnn(CCOc3ccc(C(=O)Nc4ccccc4N)cc3)c2n1	974	105			
Cc1ccc(-c2nc(N)nc3c2cnn3Cc2ccc(N)c(OCCCCCCC(=O)NO)c2)o1	74.3	45	26700	19600	
Nc1nc(-c2ccco2)c2cnn(CCCCC(=O)NO)c2n1	1560	394			
Nc1nc(-c2ccco2)c2cnn(Cc3ccc(C(=O)NO)cc3)c2n1	863	12.8			
Cc1ccc(-c2nc(N)nc3c2cnn3Cc2cccc(OCCCCC(=O)NO)c2)o1	25.9	206			
Cc1ccc(-c2nc(N)nc3c2cnn3Cc2cccc(OCCCCCCC(=O)NO)n2)o1	159	29.5	6410	7680	
Cc1ccc(-c2nc(N)nc3c2cnn3CCCCCCC(=O)NO)o1	334	2.2			
Cc1ccc(-c2nc(N)nc3c2cnn3Cc2cccc(OCCCCCC(=O)NO)c2)o1	12.3	95	23200	18900	
Cc1ccc(-c2nc(N)nc3c2cnn3CCc2ccc(C(=O)NO)cc2)o1	295	73.5			

SMILES	Ki (Adenosine receptor A2a) [nM]	IC50 (Histone deacetylase 1) [nM]	GI50 (MC-38) [nM]	GI50 (CT26) [nM]	further results
Cc1ccc(-c2nc(N)nc3c2cnn3Cc2cccc(OCCCCCC(=O)NO)n2)o1	72.8	210			
Nc1nc(-c2ccco2)c2cnn(Cc3cccc(OCCCCCCC(=O)NO)n3)c2n1	14.7	23	5060	5800	k el at 24 h [1]: 0.000131 s⁻¹; half-life [2]: 1.48 h; Tmax [3]: 0.25 h; Cmax [4]: 608 ng/mL; AUC(0-t) at 24 h [5]: 302 ng·h/mL; MRT [6]: 1.16 h; Ki (Adenosine receptor A1): 641 nM; Ki (Adenosine receptor A2b): 2500 nM; Ki (Adenosine receptor A3): > 10000 nM
Nc1nc(-c2ccco2)c2cnn(Cc3cccc(/C=C/C(=O)Nc4ccccc4N)c3)c2n1	35.8	1180			
Cc1ccc(-c2nc(N)nc3c2cnn3Cc2ccc(C(=O)Nc3ccccc3N)cc2)o1	> 10000	45			
Nc1nc(-c2ccco2)c2cnn(CCCc3ccc(C(=O)Nc4ccccc4N)cc3)c2n1	140	186	6960	7560	
Cc1ccc(-c2nc(N)nc3c2cnn3Cc2cccc(/C=C/C(=O)Nc3ccccc3N)c2)o1	25	2530			
Cc1ccc(-c2nc(N)nc3c2cnn3CCCCC(=O)NO)o1	1830	228			
Cc1ccc(-c2nc(N)nc3c2cnn3CCCCCC(=O)NO)o1	617	7.3			
Cc1ccc(-c2nc(N)nc3c2cnn3CCCCCCCC(=O)NO)o1	585	7.2			
Nc1nc(-c2ccco2)c2cnn(CCCc3ccc(C(=O)NO)cc3)c2n1	863	64.5			
Nc1nc(-c2ccco2)c2cnn(Cc3ccc(/C=C/C(=O)Nc4ccccc4N)cc3)c2n1	> 10000	116			
Nc1nc(-c2ccco2)c2cnn(CCCCCCCC(=O)NO)c2n1	276	9.3			
Cc1ccc(-c2nc(N)nc3c2cnn3Cc2ccc(C(=O)NO)cc2)o1	2540	14			
Nc1nc(-c2ccco2)c2cnn(Cc3ccc(N)c(OCCCCCCC(=O)NO)c3)c2n1	15	37	28200	22800	
Nc1nc(-c2ccco2)c2cnn(Cc3ccc(/C=C/C(=O)NO)cc3)c2n1	3590	7.1			
Cc1ccc(-c2nc(N)nc3c2cnn3Cc2cccc(OCCCCC(=O)NO)n2)o1	72	573			
Nc1nc(-c2ccco2)c2cnn(Cc3ccc(C(=O)Nc4ccccc4N)cc3)c2n1	1720	17.5			
Nc1nc(-c2ccco2)c2cnn(CCOc3ccc(C(=O)NO)cc3)c2n1	> 10000	11.1			
Nc1nc(-c2ccco2)c2cnn(Cc3cccc(OCCCCCC(=O)NO)c3)c2n1	10.9	86	9820	9990	
Nc1nc(-c2ccco2)c2cnn(CCCOc3ccc(C(=O)Nc4ccccc4N)cc3)c2n1	147	190	> 30000	> 30000	
Cc1ccc(-c2nc(N)nc3c2cnn3Cc2cccc(/C=C/C(=O)NO)c2)o1	378	14.5			
